Source: article PMC12475274, “Harnessing indole scaffolds to identify small-molecule IRE1α inhibitors modulating XBP1 mRNA splicing” (Nature Communications, 2025)
Several values for one entry are separate records, joined by “and”; a condition that tells them apart may be missing. Identical values can stand only once. Entries after “also recorded” stand apart in the source; their conditions may differ. Like-named read-outs stand apart in the source and are kept apart here. Blank lines part the entries; values can stand above or below the compound they belong to.

Columns and labels:
[1] = target: T1, IRE1α (Homo sapiens, UniProt O75460); test: Differential scanning fluorimetry (DSF), IRE1α; assay type: binding; conditions: for IRE1 ∆Tm(°C): replicate values; for IRE1a ∆Tm: DSF, individual measurements
T1 construct: Human IRE1α kinase and RNase domain (residues 547–977) was subcloned into pLIB plasmid; His tag (with TEV cleavage site) (N, cleaved yes); made in house; host or cells: Sf9 insect cells, baculovirus (Bac-to-Bac)
Method: The DSF assay was performed in PBS buffer containing 2 mM DTT, in a total reaction volume of 20 µl with indicated compounds (final 1% DMSO) and the final concentration of 1 µM IRE1α protein and 5× SYPRO Orange fluorescent dye (5000× in DMSO, Sigma S5692). The melting curve was measured at a temperature range from 25 °C to 95 °C and in increments of 1 °C for 30 s using a Bio-Rad CFX96 Real-Time PCR detection system with the FRET scan mode. The melting temperature (Tm) was obtained by fitting the melting curve to Boltzmann sigmoidal in GraphPad Prism and the thermal shift (∆Tm) was calculated by using the equation: ∆Tm = Tm(compound) -Tm(DMSO).

[2] = target: T2, phosphorylated IRE1α (p-IRE1α) (Homo sapiens, UniProt O75460); test: FRET-based IRE1α RNase activity assay, phosphorylated IRE1α; assay type: biochemical; conditions: for inhibition(%): p-IRE1a
T2 construct: Human IRE1α kinase and RNase domain (residues 547–977) was subcloned into pLIB plasmid; His tag (with TEV cleavage site) (N, cleaved yes); made in house; host or cells: Sf9 insect cells, baculovirus (Bac-to-Bac)
How it was run: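 Cleavage of a dual-labeled XBP1 RNA (200 nM) was followed kinetically over 1 h at room temperature at 485/535 nm, with initial slopes giving percent inhibition and IC50. Enzyme was 4 nM phosphorylated human IRE1α 547–977 from insect cells, incubated with compound for 30 min before substrate; buffer 20 mM HEPES pH 7.5, KOAc, MgOAc2, DTT, Triton X-100.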

[3] = compound 1.563 μM, Supplementary Fig. 3d/3e
[4] = compound 3.125 μM, Supplementary Fig. 3d/3e
[5] = compound 6.25 μM, Supplementary Fig. 3d/3e
[6] = compound 12.5 μM, Supplementary Fig. 3d/3e
[7] = compound 25 μM, Supplementary Fig. 3d/3e
[8] = compound 50 μM, Supplementary Fig. 3d/3e
[9] = compound 100 μM, Supplementary Fig. 3d/3e
[10] = FRET assay, RNase activity, mean (± SEM), read-out: p-IRE1α IC50
[11] = FRET assay, source data, unit from Fig. 3, read-out: p-IRE1a IC50, individual replicates (n1-n4)
[12] = FRET assay, read-out: p-IRE1α IC50 (RNase activity)

T2 sequence (O75460 547-977): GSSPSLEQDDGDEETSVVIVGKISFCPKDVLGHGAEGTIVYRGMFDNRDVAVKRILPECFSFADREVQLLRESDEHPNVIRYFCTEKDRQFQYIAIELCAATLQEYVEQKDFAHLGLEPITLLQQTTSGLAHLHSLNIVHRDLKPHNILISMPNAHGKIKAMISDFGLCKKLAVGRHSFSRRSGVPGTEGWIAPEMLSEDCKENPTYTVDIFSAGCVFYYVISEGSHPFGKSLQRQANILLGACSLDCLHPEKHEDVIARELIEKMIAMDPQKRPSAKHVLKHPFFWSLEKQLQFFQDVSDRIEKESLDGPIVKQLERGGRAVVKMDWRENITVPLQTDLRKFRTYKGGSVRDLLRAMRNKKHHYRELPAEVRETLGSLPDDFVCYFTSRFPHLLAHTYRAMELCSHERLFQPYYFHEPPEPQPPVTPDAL
T1 sequence (O75460 547-977): as above

- stabilization of IRE1α in DSF [1]: concentration-dependently stabilized
- IC50 [2, 10]: 133 nM and 130 nM
- IC50 [2, 11]: 154 nM and 127 nM and 116 nM
SMILES: Cc1ccc2c(c1)c(CCC(=O)O)c(C)n2C(=O)c1ccccc1 [IA147]
- IRE1 ∆Tm(°C) [1, 3]: 0.4825 °C (2×) and 0.3925 °C and 0.4425 °C
- IRE1 ∆Tm(°C) [1, 4]: 0.6325 °C and 0.6525 °C and 0.6425 °C and 0.5925 °C
- IRE1 ∆Tm(°C) [1, 5]: 1.0225 °C and 1.5025 °C and 1.2125 °C and 1.1425 °C
- IRE1 ∆Tm(°C) [1, 6]: 1.7325 °C and 2.0725 °C and 1.7925 °C (2×)
- IRE1 ∆Tm(°C) [1, 7]: 2.7025 °C (2×) and 2.5925 °C and 2.5225 °C
- IRE1 ∆Tm(°C) [1, 8]: 3.6525 °C and 3.6025 °C and 3.6325 °C and 3.5325 °C
- IRE1 ∆Tm(°C) [1, 9]: 4.5725 °C and 4.5025 °C and 4.4925 °C and 4.4625 °C

- stabilization of IRE1α in DSF [1]: did not show any detectable changes
- p-IRE1α IC50 ([2]; FRET assay, RNase activity, mean (± SEM)): IC₅₀ not reached
- IC50 [2, 10]: > 20000 nM
- inhibition(%) ([2]; IA34 0.000847 μM, Supplementary Fig. 3b, replicate values): 2.43% and -1.86% and 1.39%
- inhibition(%) ([2]; IA34 0.00254 μM, Supplementary Fig. 3b, replicate values): -5.52% and -18.14% and 21.30% and 14.33%
- inhibition(%) ([2]; IA34 0.007621 μM, Supplementary Fig. 3b, replicate values): 0.79% and -13.95% and -1.17% and 1.14%
- inhibition(%) ([2]; IA34 0.022862 μM, Supplementary Fig. 3b, replicate values): 1.11% and -4.73% and 39.51% and 0.29%
- inhibition(%) ([2]; IA34 5.55556 μM, Supplementary Fig. 3b, replicate values): 14.49% and 0.73% and 11.46% and -10.03%
- inhibition(%) ([2]; IA34 16.6667 μM, Supplementary Fig. 3b, replicate values): 26.07% and 13.29% and -8.49% and -17.54%
- inhibition(%) ([2]; IA34 50 μM, Supplementary Fig. 3b, replicate values): -20.79% and 2.08% and 7.61% and 4.39%
SMILES: COc1ccc2c(c1)c(CCC(=O)O)c(C)n2C(=O)c1ccc2ccccc2c1 [IA34]
- inhibition(%) ([2]; IA34 0.068587 μM, Supplementary Fig. 3b, replicate values): -18.24% and -15.02% and -11.07% and -8.20%
- inhibition(%) ([2]; IA34 0.205761 μM, Supplementary Fig. 3b, replicate values): -19.34% and -16.85% and 12.47% and -7.35%
- inhibition(%) ([2]; IA34 0.617284 μM, Supplementary Fig. 3b, replicate values): 15.53% and 10.67% and -18.52% and -10.41%
- inhibition(%) ([2]; IA34 1.85185 μM, Supplementary Fig. 3b, replicate values): -19.37% and -18.05% and -6.66% and -19.44%

- effect on p-IRE1α RNase activity in the FRET assay [2]: did not inhibit the RNase activity
- inhibition(%) ([2]; 50 μM): 0.943% and 1.151% and 1.193% and 2.068%
SMILES: CCOC(=O)CCc1c(C)n(C(=O)c2ccccc2)c2ccc(Br)cc12 [IAPD1]
- inhibition(%) ([2]; 0.00254 μM): -4.888% and 2.526% and -4.055% and 4.733%
- inhibition(%) ([2]; 16.6667 μM): -1.806% and 4.317% and -3.888% and 0.777%

- stabilization of IRE1α in DSF [1]: concentration-dependently stabilized
- IRE1 ∆Tm(°C) [1, 9]: 5.27 °C (2×) and 5.25 °C and 5.36 °C
- IC50 [2, 10]: 82 nM and 80 nM
- IC50 [2, 11]: 98.9 nM and 83.6 nM and 62.4 nM
SMILES: Cc1c(CCC(=O)O)c2cc(Cl)ccc2n1C(=O)c1ccccc1 [IA141]
- IRE1 ∆Tm(°C) [1, 3]: 0.63 °C and 0.81 °C and 0.65 °C and 0.58 °C
- IRE1 ∆Tm(°C) [1, 4]: 1.12 °C and 1.18 °C and 0.97 °C and 1.08 °C
- IRE1 ∆Tm(°C) [1, 5]: 1.79 °C and 1.73 °C and 1.77 °C and 1.66 °C
- IRE1 ∆Tm(°C) [1, 6]: 2.82 °C and 2.70 °C and 2.75 °C and 2.68 °C
- IRE1 ∆Tm(°C) [1, 7]: 3.71 °C and 3.59 °C and 3.83 °C and 3.70 °C
- IRE1 ∆Tm(°C) [1, 8]: 4.64 °C and 4.50 °C and 4.51 °C and 4.69 °C

Continued, compound first:

SMILES: COc1ccc2c(c1)c(CCC(=O)O)c(C)n2C(=O)c1ccccc1 [IA64]
- stabilization of IRE1α in DSF [1]: concentration-dependently stabilized
- IRE1 ∆Tm(°C) ([1]; compound 6.25 μM, Supplementary Fig. 3c): 1.2 °C and 1.21 °C
- IRE1 ∆Tm(°C) ([1]; compound 12.5 μM, Supplementary Fig. 3c): 1.94 °C and 2.05 °C
- IRE1 ∆Tm(°C) ([1]; compound 25 μM, Supplementary Fig. 3c): 2.82 °C and 2.92 °C
- IRE1 ∆Tm(°C) ([1]; compound 50 μM, Supplementary Fig. 3c): 3.88 °C
- IC50 [2, 10]: 37.4 nM
- IC50 [2, 12]: 30 nM
- IC50 [2, 11]: 61 nM and 17 nM and 34 nM and 26 nM

SMILES: CCOC(=O)Nc1cccc2c(Oc3ncccc3-c3ccnc(N[C@H]4CCCNC4)n3)c(C)ccc12 [Compound G1749, reference compound]
- effect on p-IRE1α RNase activity in the FRET assay [2]: inhibiting p-IRE1α; also recorded: inhibit the p-IRE1α RNase activity
- inhibition(%) ([2]; 5.55556 μM): 93.9541% and 94.7061% and 91.8428% and 92.9515%
- inhibition(%) ([2]; 16.6667 μM): 92.2815% and 93.8095% and 92.7972% and 92.696%
- inhibition(%) ([2]; 50 μM): 92.1465% and 91.4042% and 91.8332% and 89.3845%

SMILES: Cc1ccc2c(NS(=O)(=O)c3ccccc3Cl)cccc2c1Oc1ncccc1-c1ccnc(N[C@H]2CCCNC2)n1 [KIRA8]
- effect on p-IRE1α RNase activity in the FRET assay [2]: inhibit the p-IRE1α RNase activity
- IC50 [2, 10]: 3 nM

SMILES: Cc1c(CCC(=O)O)c2cc(Br)ccc2n1C(=O)c1ccccc1 [IA107]
- stabilization of IRE1α in DSF [1]: concentration-dependently stabilized
- IRE1a ∆Tm ([1]; compound 25 μM): 4.2925 °C (2×) and 4.2325 °C and 4.2625 °C
- IRE1a ∆Tm ([1]; compound 50 μM): 5.1825 °C and 5.3725 °C and 5.2525 °C and 5.2825 °C
- IRE1a ∆Tm ([1]; compound 100 μM): 5.7825 °C and 5.7925 °C (2×) and 5.8625 °C
- IC50 [2, 10]: 9.31 nM
- IC50 [2, 12]: 9 nM
- IC50 [2, 11]: 11.1 nM and 10.2 nM and 6.6 nM

SMILES: COc1ccc2c(c1)c(CCC(=O)O)c(C)n2C(=O)c1ccc(Cl)cc1 [IA01]
- stabilization of IRE1α in DSF [1]: stabilized IRE1α concentration-dependently
- IRE1a ∆Tm ([1]; compound 25 μM): 1.17 °C and 1.02 °C
- IRE1a ∆Tm ([1]; compound 50 μM): 1.57 °C and 1.89 °C
- inhibition at 50 µM ([2]; FRET assay at 50 μM, mean (± SEM), read-out: p-IRE1α inhibition%): 99.3%
- p-IRE1a Inhibiton%, individual measurements ([2]; FRET assay at 50 μM, source data, 50 µM): 102.461% and 99.7014% and 101.879% and 92.3671% and 96.3072%
- inhibition at 50 µM ([2]; FRET assay at 50 μM, source data, read-out: p-IRE1a Inhibiton%, individual measurements): 103%
- IC50 [2, 10]: 320 nM
- IC50 [2, 11]: 544 nM and 136 nM and 264 nM and 325 nM
